Measurements published in patent US20220128542A1, “TREATMENT EFFICIENCY EVALUATION” (TX MEDIC AB, priority 2019, published 2022).
Marks after values point to notes of the source that are not given here.

System: brain of rats subjected to severe traumatic brain injury (sTBI)
Assay: HPLC of free amino acids and amino group containing compounds in brain after sTBI (Example 1)
Type: in vivo, rat
Protocol: They were divided into three groups:
1) n=6 animals subjected to sTBI, with drug administration after 30 minutes and sacrifice at 2 days post-TBI (Acute phase 1)
2) n=6 animals subjected to sTBI, with drug administration after 30 minutes and sacrifice at 7 days post-TBI (Acute phase 2).
3) n=6 animals subjected to sTBI, with drug administration after 3 days and sacrifice at 7 days post-TBI (Chronic phase).
The drug treatment was a subcutaneous injection of 0.5 ml of LMW-DS (15 mg/kg) and administered according to the aforementioned schematic protocol.
After the wet weight (w.w.) determination, tissue preparation was affected as previously disclosed (Tavazzi et al., Neurosurgery. 2005; 56: 582-589; Vagnozzi et al., Neurosurgery. 2007; 61: 379-388; Tavazzi et al., Neurosurgery. 2007; 61: 390-395; Amorini et al., J Cell Mol Med. 2017; 21: 530-542.). Briefly, whole brain homogenization was performed with 7 ml of ice-cold, nitrogen-saturated, precipitating solution composed by CH3CN+10 mM KH2PO4, pH 7.40, (3:1; v:v), and using an Ultra-Turrax set at 24,000 rpm/min (Janke & Kunkel, Staufen, Germany). After centrifugation at 20,690×g, for 10 min at 4° C., the clear supernatants were saved, pellets were supplemented with 3 ml of the precipitating solution and homogenized again as described above. A second centrifugation was performed (20,690×g, for 10 min at 4° C.), pellets were saved, supernatants combined with those previously obtained, extracted by vigorous agitation with a double volume of HPLC-grade CHCl3 and centrifuged as above. The upper aqueous phases containing water-soluble low-molecular weight compounds were collected, subjected to chloroform washings for two more times (this procedure allowed the removal of all the organic solvent and of any lipid soluble compound from the buffered tissue extracts), adjusted in volumes with 10 mM KH2PO4, pH 7.40, to have ultimately aqueous 10% tissue homogenates and saved at −80° C. until assayed.
The simultaneous determination of primary free amino acids (FAA) and amino group containing compounds (AGCC) (listed below) was performed using the precolumn derivatization of the sample with a mixture of Ortho-phthalaldehyde (OPA) and 3-Mercaptopropionic acid (MPA), as described in detail elsewhere (Amorini et al., J Cell Mol Med. 2017; 21: 530-542; Amorini et al., Mol Cell Biochem. 2012; 359: 205-216). […] The automated precolumn derivatization of the samples (15 μl) with OPA-MPA was carried out at 24° C. and 25 μl of the derivatized mixture were loaded onto the HPLC column (Hypersil C-18, 250×4.6 mm, 5 μm particle size, thermostated at 21° C.) for the subsequent chromatographic separation. In the case of glutamate, deproteinized brain extracts were diluted 20 times with HPLC-grade H2O prior to the derivatization procedure and subsequent injection. Separation of OPA-AA and OPA-AGCC was carried out at a flow rate of 1.2 ml/min using two mobile phases (mobile phase A=24 mmol/l CH3COONa+24 mmol/l Na2HPO4+1% tetrahydrofurane+0.1% trifluoroacetic acid, pH 6.5; mobile phase B=40% CH3OH+30% CH3CN+30% H2O), using an appropriate step gradient (Amorini et al., J Cell Mol Med. 2017; 21: 530-542; Amorini et al., Mol Cell Biochem. 2012; 359: 205-216).
Assignment and calculation of the OPA-AA and OPA-AGCC in chromatographic runs of whole brain extracts were carried out at 338 nm wavelengths by comparing retention times and areas of peaks with those of peaks of chromatographic runs of freshly-prepared ultra-pure standard mixtures with known concentrations. […]

[1] = Acute phase 1: 15 mg/kg s.c. 30 min post-sTBI, sacrifice day 2
[2] = Acute phase 2: 15 mg/kg s.c. 30 min post-sTBI, sacrifice day 7
[3] = Chronic phase: 15 mg/kg s.c. 3 days post-sTBI, sacrifice day 7

## sodium salt of dextran sulfate [LMW-DS]
15 mg/kg s.c. early post-injury (30 min following sTBI)
  effect on sTBI-induced increase in glutamate (GLU): remarkable inhibition
15 mg/kg s.c. injected at 3 days after sTBI
  effect on glutamate excitotoxicity marker: no efficacy
[1]
  ALA cerebral concentration: 0.50 ± 0.12^a μmol/g (w.w.)
  ARG cerebral concentration: 0.13 ± 0.02^b, d μmol/g (w.w.)
  ASN cerebral concentration: 0.12 ± 0.02^i μmol/g (w.w.)
  ASP cerebral concentration: 2.40 ± 0.56^d, i μmol/g (w.w.)
  CITR cerebral concentration: 0.018 ± 0.004 µmol/g (w.w.)
  GABA cerebral concentration: 1.43 ± 0.25^a μmol/g (w.w.)
  GLN cerebral concentration: 4.78 ± 1.09^a μmol/g (w.w.)
  GLU cerebral concentration: 9.81 ± 1.66^i μmol/g (w.w.)
  GLY cerebral concentration: 0.83 ± 0.25^a, c μmol/g (w.w.)
  HIS cerebral concentration: 0.068 ± 0.015^b μmol/g (w.w.)
  ILE cerebral concentration: 0.038 ± 0.007 µmol/g (w.w.)
  L-Cystat cerebral concentration: 0,185 ± 0.031^b, c, i μmol/g (w.w.)
  LEU cerebral concentration: 0.021 ± 0.005^a, c μmol/g (w.w.)
  LYS cerebral concentration: 0.236 ± 0.057^b, d, h μmol/g (w.w.)
  MET cerebral concentration: 0.016 ± 0.005^d, j μmol/g (w.w.)
  ORN cerebral concentration: 0.014 ± 0.007 µmol/g (w.w.)
  PHE cerebral concentration: 0.031 ± 0.011^b, d μmol/g (w.w.)
  SAH cerebral concentration: 0.033 ± 0.008^b, c, j μmol/g (w.w.)
  SER cerebral concentration: 0.88 ± 0.25^a μmol/g (w.w.)
  TAU cerebral concentration: 4.86 ± 0.85^b μmol/g (w.w.)
  THR cerebral concentration: 0.92 ± 0.29^a μmol/g (w.w.)
  TRP cerebral concentration: 0.030 ± 0.007^b, dg, i μmol/g (w.w.)
  TYR cerebral concentration: 0.15 ± 0.03 µmol/g (w.w.)
  VAL cerebral concentration: 0.042 ± 0.011 µmol/g (w.w.)
[2]
  ALA cerebral concentration: 0.52 ± 0.24^a, e μmol/g (w.w.)
  ARG cerebral concentration: 0.16 ± 0.03 µmol/g (w.w.)
  ASN cerebral concentration: 0.13 ± 0.03^i μmol/g (w.w.)
  ASP cerebral concentration: 2.94 ± 0.98^f, j μmol/g (w.w.)
  CITR cerebral concentration: 0.018 ± 0.008 µmol/g (w.w.)
  GABA cerebral concentration: 1.60 ± 0.24^a μmol/g (w.w.)
  GLN cerebral concentration: 3.66 ± 0.41 µmol/g (w.w.)
  GLU cerebral concentration: 9.93 ± 1.56^e, i μmol/g (w.w.)
  GLY cerebral concentration: 0.71 ± 0.16^f, i μmol/g (w.w.)
  HIS cerebral concentration: 0.055 ± 0.019 µmol/g (w.w.)
  ILE cerebral concentration: 0.048 ± 0.017^a μmol/g (w.w.)
  L-Cystat cerebral concentration: 0.173 ± 0.038^b, f, i μmol/g (w.w.)
  LEU cerebral concentration: 0.018 ± 0.004 µmol/g (w.w.)
  LYS cerebral concentration: 0.32 ± 0.04^a, e, i μmol/g (w.w.)
  MET cerebral concentration: 0.022 ± 0.006^b, e, i μmol/g (w.w.)
  ORN cerebral concentration: 0.011 ± 0.005 µmol/g (w.w.)
  PHE cerebral concentration: 0.028 ± 0.010 µmol/g (w.w.)
  SAH cerebral concentration: 0.026 ± 0.010^f, i μmol/g (w.w.)
  SER cerebral concentration: 0.71 ± 0.28^b μmol/g (w.w.)
  TAU cerebral concentration: 3.80 ± 1.19 µmol/g (w.w.)
  THR cerebral concentration: 0.66 ± 0.23 µmol/g (w.w.)
  TRP cerebral concentration: 0.015 ± 0.006 µmol/g (w.w.)
  TYR cerebral concentration: 0.172 ± 0.046^b, f μmol/g (w.w.)
  VAL cerebral concentration: 0.057 ± 0.017 µmol/g (w.w.)
[3]
  ALA cerebral concentration: 0.57 ± 0.28^a, e μmol/g (w.w.)
  ARG cerebral concentration: 0.14 ± 0.02 µmol/g (w.w.)
  ASN cerebral concentration: 0.18 ± 0.02^a μmol/g (w.w.)
  ASP cerebral concentration: 4.46 ± 0.70^a, f μmol/g (w.w.)
  CITR cerebral concentration: 0.020 ± 0.006 µmol/g (w.w.)
  GABA cerebral concentration: 1.85 ± 0.65^a μmol/g (w.w.)
  GLN cerebral concentration: 3.98 ± 0.34 µmol/g (w.w.)
  GLU cerebral concentration: 13.58 ± 1.28^a μmol/g (w.w.)
  GLY cerebral concentration: 1.05 ± 0.13^a, f μmol/g (w.w.)
  HIS cerebral concentration: 0.047 ± 0.021 µmol/g (w.w.)
  ILE cerebral concentration: 0.041 ± 0.016^b μmol/g (w.w.)
  L-Cystat cerebral concentration: 0.26 ± 0.05^a, f μmol/g (w.w.)
  LEU cerebral concentration: 0.024 ± 0.032^b, f μmol/g (w.w.)
  LYS cerebral concentration: 0.179 ± 0.036 µmol/g (w.w.)
  MET cerebral concentration: 0.009 ± 0.004^b μmol/g (w.w.)
  ORN cerebral concentration: 0.017 ± 0.009^a, e μmol/g (w.w.)
  PHE cerebral concentration: 0.033 ± 0.011^b μmol/g (w.w.)
  SAH cerebral concentration: 0.050 ± 0.013^a μmol/g (w.w.)
  SER cerebral concentration: 0.93 ± 0.27^a, e μmol/g (w.w.)
  TAU cerebral concentration: 4.49 ± 0.43^a μmol/g (w.w.)
  THR cerebral concentration: 0.75 ± 0.24^a, e μmol/g (w.w.)
  TRP cerebral concentration: 0.012 ± 0.007 µmol/g (w.w.)
  TYR cerebral concentration: 0.21 ± 0.05^f μmol/g (w.w.)
  VAL cerebral concentration: 0.040 ± 0.016^b μmol/g (w.w.)
